This note sets out measurements from patent US7019144B2, “1,2,4-Triazole derivative, method for preparing the same, and pharmaceutical composition containing the same” (CJ Corp., priority 2002, dated 2006).

Test [1] concerns carrageenan-induced paw edema. The test is described as follows: Carrageenan-induced paw edema test in rats. The settings on record: oral administration, foot swelling 3 hours after carrageenan injection vs control. The format is in vivo. Here is the method:
2. Carrageenan-induced Paw Edema Test in Rats
The day before the test date, rats were selected in each group so that the average body weight was as close as possible, and the rats were fasted by feed withdrawal prior to the test. At the test date, the rats were orally administered with the test compounds and a control material. After 1 hour, the volume (V0h) of a predetermined portion of the left hind foot of the rats was measured with a plethysmometer. 100 μl of 1% carrageenan solution was subcutaneously injected to the left hind foot of the rats using a syringe with 1 ml capacity. Three hours after the injection of the carrageenan, the volume (V3h) of the predetermined portion of the foot was again measured. The foot swelling variation […] in a group of test compound-treated rats was compared with that of a group of control material-treated rats. With the supposition of 0% inhibition by the control (control material-treated rats), the inhibition percentage of edema of each test compound was determined.
In general terms: The carrageenan paw model is a standard test of acute inflammation.

The target of test [2] is T1, COX-1 (Homo sapiens, UniProt P23219).
T1 construct: host or cells: U-937 human lymphoma cells
T1 sequence (P23219 24-599): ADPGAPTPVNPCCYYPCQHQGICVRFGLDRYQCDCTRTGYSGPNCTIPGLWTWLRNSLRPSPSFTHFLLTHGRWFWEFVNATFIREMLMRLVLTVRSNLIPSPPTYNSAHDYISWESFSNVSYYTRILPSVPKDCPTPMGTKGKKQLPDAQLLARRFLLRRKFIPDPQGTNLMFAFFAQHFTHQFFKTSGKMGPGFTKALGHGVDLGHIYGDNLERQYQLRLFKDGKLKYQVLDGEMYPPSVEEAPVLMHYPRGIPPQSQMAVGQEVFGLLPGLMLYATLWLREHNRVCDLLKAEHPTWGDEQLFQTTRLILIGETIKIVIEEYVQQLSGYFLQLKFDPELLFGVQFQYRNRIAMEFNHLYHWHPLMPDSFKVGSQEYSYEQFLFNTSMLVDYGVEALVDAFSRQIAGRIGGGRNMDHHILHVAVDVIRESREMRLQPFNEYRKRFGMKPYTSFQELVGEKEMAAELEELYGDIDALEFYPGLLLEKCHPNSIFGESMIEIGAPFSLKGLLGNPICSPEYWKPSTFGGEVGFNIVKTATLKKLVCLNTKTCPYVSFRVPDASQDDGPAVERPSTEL
Description: Assay for the COX-1 inhibitory activity using U-937 (PGE2 inhibition). It is filed as cell-based. The settings on record: for inhibition at 1 µM: 1 μM test compound, U-937 human lymphoma cells, PGE2 inhibition vs DMSO, read-out: Cyclooxygenase (COX) Inhibition (%) COX-1 (1 μM); for COX-1 inhibitory activity in comparison with the reference (Valdecoxib): 1 μM, U-937, comparison in words. Here is the method:
The collected cells were diluted with HBSS (×1, Hank's balanced salt solution) to a concentration of 1×10^6 cells/ml. 1 ml of the dilute cell solution was placed into each well of 12-well plates. 5 μl of 1 μM solution of a test compound in DMSO and 5 μl of DMSO as a control were added to the wells. The wells were incubated in CO2 incubator at 37° C. for 15 minutes. Separately, 10 mM stock solution of arachidonic acid in ethanol was diluted ten times in ethanol to prepare 1 mM solution of arachidonic acid. Arachidonic acid acts as a substrate. 10 μl of the 1 mM solution of arachidonic acid was added to each well and incubated at CO2 incubator at 37° C. for 30 minutes. The cell solution of each well was placed in a centrifuge test tube and centrifuged at 10,000 rpm at 4° C. for 5 minutes. The concentration of PGE2 in the collected cells and the supernatant was quantified by means of a monoclonal kit (Cayman Chemicals). The percentages of PGE2 inhibition in a group of the test compound-treated cells in relation to a group of the DMSO-treated cells were calculated. Based on the calculated values, the COX-1 inhibitory activities were evaluated.
(§1) The percentages of the COX inhibition were calculated according to the following equation: % Inhibition=(concentration of PGE2 in test compound-untreated sample−concentration of PGE2 in test compound-treated sample)/(concentration of PGE2 in test compound-untreated sample)×100

Test [3] addresses T2, COX-2 (Mus musculus, UniProt Q05769).
T2 construct: host or cells: RAW 264.7 cells, aspirin-pretreated, then induced with interferon gamma and LPS
T2 sequence (Q05769 18-604): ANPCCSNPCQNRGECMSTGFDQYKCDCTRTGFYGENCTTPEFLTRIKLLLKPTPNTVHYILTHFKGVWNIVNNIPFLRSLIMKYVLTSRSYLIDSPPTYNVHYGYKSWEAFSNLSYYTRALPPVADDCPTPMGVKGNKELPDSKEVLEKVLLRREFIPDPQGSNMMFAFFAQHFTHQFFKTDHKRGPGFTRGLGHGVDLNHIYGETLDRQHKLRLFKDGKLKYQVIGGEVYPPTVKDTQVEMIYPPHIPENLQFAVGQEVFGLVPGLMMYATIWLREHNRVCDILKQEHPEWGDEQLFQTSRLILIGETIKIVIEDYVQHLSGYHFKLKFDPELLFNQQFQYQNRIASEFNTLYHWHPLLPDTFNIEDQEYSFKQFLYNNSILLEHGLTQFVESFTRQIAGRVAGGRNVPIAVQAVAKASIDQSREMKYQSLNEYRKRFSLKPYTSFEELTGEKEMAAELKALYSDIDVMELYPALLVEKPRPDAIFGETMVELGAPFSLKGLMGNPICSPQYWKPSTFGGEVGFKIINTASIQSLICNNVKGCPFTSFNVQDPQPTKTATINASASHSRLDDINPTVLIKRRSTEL
Description: Assay for the COX-2 inhibitory activity using RAW 264.7 cell line (PGE2, interferon γ/LPS induced). The settings on record: for inhibition at 0.01 µM: RAW264.7, 10 nM test compound, RAW 264.7 cells, interferon γ + LPS, 18 hours, PGE2, read-out: Cyclooxygenase (COX) Inhibition (%) COX-2 (10 nM); for COX-2 inhibitory activity in comparison with the reference (Valdecoxib): 10 nM, RAW 264.7, comparison in words; for selectivity (COX-2 over COX-1): judged from Table 1, in words. It is filed as cell-based. As to the method:
Each well was treated with 250 μM of aspirin and incubated at 37° C. for 2 hours. […] Then, each well was treated with interferon γ (100 units/ml) and Iipopolysaccharide (LPS, 100 ng/ml) and incubated for 18 hours. The culture media were transferred to another test tubes. The concentration of PGE2 was quantified by means of the EIA kit (Cayman Chemicals).
as §1

For the compound `Cc1ccc(-c2cc(C(F)(F)F)nn2-c2ccc(S(N)(=O)=O)cc2)cc1` [Celecoxib, reference compound], the “Inhibitory effect (% inhibition)” value in test [1] is on record as 23.9 % inhibition.
Turning to `CS(=O)(=O)c1ccc(-n2nc(C(F)(F)F)nc2-c2ccccc2)cc1` [Example 25, 1-(4-methanesulfonylphenyl)-5-phenyl-3-trifluoromethyl-1H-[1,2,4]triazole], in test [2], the inhibition at 1 µM was found to be 29.2%. In test [3], the inhibition at 0.01 µM turned out to be 7.62%.
The corresponding values for `CS(=O)(=O)c1ccc(-n2nc(C(F)(F)F)nc2-c2ccc(Cl)cc2)cc1` [Example 26, 5-(4-chlorophenyl)-1-(4-methanesulfonylphenyl)-3-trifluoromethyl-1H-[1,2,4]triazole] are 38.8% and 10.5%.
On to `CS(=O)(=O)c1ccc(-n2nc(C(F)(F)F)nc2-c2ccc(Br)cc2)cc1` [Example 27, 5-(4-bromophenyl)-1-(4-methanesulfonylphenyl)-3-trifluoromethyl-1H-[1,2,4]triazole], for which the “Inhibitory effect (% inhibition)” value in test [1] was 21.7 % inhibition. In addition, in test [2], the inhibition at 1 µM was 13.8%. Moreover, the inhibition at 0.01 µM in test [3] was found to be 16%.
As to `CS(=O)(=O)c1ccc(-n2nc(C(F)(F)F)nc2-c2cccc(Br)c2)cc1` [Example 29, 5-(3-bromophenyl)-1-(4-methanesulfonylphenyl)-3-trifluoromethyl-1H-[1,2,4]triazole], the inhibition at 1 µM in test [2] came to 16.7%. For the same compound, the inhibition at 0.01 µM in test [3] was 6.23%.
As to `CS(=O)(=O)c1ccc(-n2nc(C(F)(F)F)nc2-c2cccc(Cl)c2)cc1` [Example 30, 5-(3-chlorophenyl)-1-(4-methanesulfonylphenyl)-3-trifluoromethyl-1H-[1,2,4]triazole], in test [2], the inhibition at 1 µM was 18.6%. The inhibition at 0.01 µM in test [3] turned out to be 7.32%.
On the same counts, the results for `CS(=O)(=O)c1ccc(-n2nc(C(F)(F)F)nc2-c2cccc(C(F)(F)F)c2)cc1` [Example 31, 5-(3-trifluoromethylphenyl)-1-(4-methanesulfonylphenyl)-3-trifluoromethyl-1H-[1,2,4]triazole] are 16.5% and 5.66%.
`COc1ccc(-c2nc(C(F)(F)F)nn2-c2ccc(S(C)(=O)=O)cc2)c(OC)c1` [Example 32, 5-(2,4-dimethoxyphenyl)-1-(4-methanesulfonylphenyl)-3-trifluoromethyl-1H-[1,2,4]triazole]: the inhibition at 1 µM in test [2] stood at 19.9%. In test [3], the inhibition at 0.01 µM was 12.6%.
The corresponding values for `CS(=O)(=O)c1ccc(-n2nc(C(F)(F)F)nc2/C=C/c2ccccc2)cc1` [Example 33, 5-styryl-1-(4-methanesulfonylphenyl)-3-trifluoromethyl-1H-[1,2,4]triazole] are 19.2% and 19.2%.
The corresponding values for `CC(C)(C)c1ccc(-c2nc(C(F)(F)F)nn2-c2ccc(S(C)(=O)=O)cc2)cc1` [Example 36, 5-(4-t-butylphenyl)-1-(4-methanesulfonylphenyl)-3-trifluoromethyl-1H-[1,2,4]triazole] are 21.6% and 6.23%.
On to `CS(=O)(=O)c1ccc(-n2nc(C(F)(F)F)nc2-c2ccc(C#N)cc2)cc1` [Example 37, 5-(4-cyanophenyl)-1-(4-methanesulfonylphenyl)-3-trifluoromethyl-1H-[1,2,4]triazole], for which the inhibition at 1 µM in test [2] turned out to be 23.7%. For the same compound, the inhibition at 0.01 µM in test [3] stood at 8.92%.
On the same counts, the results for `CS(=O)(=O)c1ccc(-n2nc(C(F)(F)F)nc2-c2ccc([N+](=O)[O-])cc2Cl)cc1` [Example 38, 5-(4-nitro-2-chlorophenyl)-1-(4-methanesulfonylphenyl)-3-trifluoromethyl-1H-[1,2,4]triazole] are 19.5% and 5.95%.
For the compound `COc1ccc(-c2nc(C(F)(F)F)nn2-c2ccc(S(C)(=O)=O)cc2)cc1Cl` [Example 39, 5-(3-chloro-4-methoxyphenyl)-1-(4-methanesulfonylphenyl)-3-trifluoromethyl-1H-[1,2,4]triazole], in test [2], the inhibition at 1 µM is 12.5% and the “COX-1 inhibitory activity in comparison with the reference (Valdecoxib)” value is listed as “the same as or lower”. Further, in test [3], the “COX-2 inhibitory activity in comparison with the reference (Valdecoxib)” value is listed as “remarkably enhanced”, the inhibition at 0.01 µM turned out to be 32.6% and the “selectivity (COX-2 over COX-1)” value is “excellent selectivities”.
On the same counts, the results for `CS(=O)(=O)c1ccc(-n2nc(C(F)(F)F)nc2-c2ccc3c(c2)OCO3)cc1` [Example 40, 5-benzo[1,3]dioxol-5-yl-1-(4-methanesulfonylphenyl)-3-trifluoromethyl-1H-[1,2,4]triazole] are 18.7%, “the same as or lower”, “remarkably enhanced”, 33.7% and “excellent selectivities”.
Take `CS(=O)(=O)c1ccc(-n2nc(C(F)(F)F)nc2-c2ccncc2)cc1` [Example 41, 4-[2-(4-methanesulfonylphenyl)-5-trifluoromethyl-2H-[1,2,4]triazol-3-yl]pyridine]: in test [2], the inhibition at 1 µM turned out to be 16.7%. Moreover, the inhibition at 0.01 µM in test [3] is 8.88%.
Consider `Cc1ccc(-c2nc(C(F)(F)F)nn2-c2ccc(S(N)(=O)=O)cc2)cc1` [Example 42, 4-(5-p-tolyl-3-trifluoromethyl-[1,2,4]triazol-1-yl)benzenesulfonamide], for which the inhibition at 1 µM in test [2] came to 38%. Besides, the inhibition at 0.01 µM in test [3] was 12.1%.
Turning to `CS(=O)(=O)c1ccc(-n2nc(C(F)(F)F)nc2-c2ccc(Br)cc2)cn1` [Example 47, 2-methanesulfonyl-5-[5-(4-bromophenyl)-3-trifluoromethyl-[1,2,4]triazol-1-yl]pyridine], the inhibition at 1 µM in test [2] came to 21.9%. For the same compound, the inhibition at 0.01 µM in test [3] amounted to 4.26%.
The corresponding values for `COc1ccc(-c2nc(C(F)(F)F)nn2-c2ccc(S(C)(=O)=O)nc2)cc1` [Example 48, 2-methanesulfonyl-5-[5-(4-methoxyphenyl)-3-trifluoromethyl-[1,2,4]triazol-1-yl]pyridine] are 28.8% and 5.63%.
The corresponding values for `CS(=O)(=O)c1ccc(-n2nc(C(F)(F)F)nc2-c2ccc(Br)cc2)nn1` [Example 49, 3-[5-(4-bromophenyl)-3-trifluoromethyl-[1,2,4]triazol-1-yl]-6-methanesulfonyl pyridazine] are 14.6% and 3.21%.
The corresponding values for `COc1ccc(-c2nc(C(F)(F)F)nn2-c2ccc(S(C)(=O)=O)nn2)cc1` [Example 50, 3-[5-(4-methoxyphenyl)-3-trifluoromethyl-[1.2.4]triazol-1-yl]-6-methanesulfonyl pyridazine] are 10.6% and 4.32%.
As for `COc1ccc2c(c1)c(CC(=O)O)c(C)n2C(=O)c1ccc(Cl)cc1` [Indomethacine, reference compound], the “Inhibitory effect (% inhibition)” value in test [1] came out at 40.1 % inhibition.

As usually defined, the inhibition is the change of the read-out against control, counted positive when it falls.
